± gives the expanded uncertainty stated by the source.
experiment: activity coefficient (dimensionless); of the first substance listed, at infinite dilution; xn = mol fraction of the nth substance listed; conditions: 348.15 K; 101.33 kPa; Liquid; Chromatography; x1 = 0

In order of rising activity coefficient:
1. c1ccncc1 [pyridine] + CC[N+](C)(CC)CCOC.O=S(=O)([N-]S(=O)(=O)C(F)(F)F)C(F)(F)F  0.615 ± 0.054
2. C1CCOC1 [tetrahydrofuran] + CC[N+](C)(CC)CCOC.O=S(=O)([N-]S(=O)(=O)C(F)(F)F)C(F)(F)F  0.862 ± 0.072
3. CCCC(C)=O [pentan-2-one] + CC[N+](C)(CC)CCOC.O=S(=O)([N-]S(=O)(=O)C(F)(F)F)C(F)(F)F  0.884 ± 0.073
4. CCC(=O)CC [pentan-3-one] + CC[N+](C)(CC)CCOC.O=S(=O)([N-]S(=O)(=O)C(F)(F)F)C(F)(F)F  0.906 ± 0.075
5. c1ccsc1 [thiophene] + CC[N+](C)(CC)CCOC.O=S(=O)([N-]S(=O)(=O)C(F)(F)F)C(F)(F)F  0.937 ± 0.077
6. C=Cc1ccccc1 [styrene] + CC[N+](C)(CC)CCOC.O=S(=O)([N-]S(=O)(=O)C(F)(F)F)C(F)(F)F  1.34 ± 0.11
7. CC(C)O [propan-2-ol] + CC[N+](C)(CC)CCOC.O=S(=O)([N-]S(=O)(=O)C(F)(F)F)C(F)(F)F  1.56 ± 0.13
8. CCCO [propan-1-ol] + CC[N+](C)(CC)CCOC.O=S(=O)([N-]S(=O)(=O)C(F)(F)F)C(F)(F)F  1.72 ± 0.15
9. CCCCCCCC [octane] + CC[N+](C)(CC)CCOC.O=S(=O)([N-]S(=O)(=O)C(F)(F)F)C(F)(F)F  29.5 ± 2.6

same assay, conditions: 358.15 K; 101.33 kPa; Liquid; Chromatography; x1 = 0

In order of falling activity coefficient:
1. CCCCCCCCCC [decane] + CC[N+](C)(CC)CCOC.O=S(=O)([N-]S(=O)(=O)C(F)(F)F)C(F)(F)F  52.6 ± 4.6
2. CCCCCCCCC [nonane] + CC[N+](C)(CC)CCOC.O=S(=O)([N-]S(=O)(=O)C(F)(F)F)C(F)(F)F  37.7 ± 3.3
3. CCCCCCCC [octane] + CC[N+](C)(CC)CCOC.O=S(=O)([N-]S(=O)(=O)C(F)(F)F)C(F)(F)F  27 ± 2.3
4. CCCCCCC [heptane] + CC[N+](C)(CC)CCOC.O=S(=O)([N-]S(=O)(=O)C(F)(F)F)C(F)(F)F  19.3 ± 1.7
5. C=CCCCCCC [oct-1-ene] + CC[N+](C)(CC)CCOC.O=S(=O)([N-]S(=O)(=O)C(F)(F)F)C(F)(F)F  15.2 ± 1.3
6. C1CCCCCCC1 [cyclooctane] + CC[N+](C)(CC)CCOC.O=S(=O)([N-]S(=O)(=O)C(F)(F)F)C(F)(F)F  14.5 ± 1.3
7. CCCCCC [hexane] + CC[N+](C)(CC)CCOC.O=S(=O)([N-]S(=O)(=O)C(F)(F)F)C(F)(F)F  14 ± 1.2
8. CCC(C)CC [3-methylpentane] + CC[N+](C)(CC)CCOC.O=S(=O)([N-]S(=O)(=O)C(F)(F)F)C(F)(F)F  12.5 ± 1.1
9. CC1CCCCC1 [methylcyclohexane] + CC[N+](C)(CC)CCOC.O=S(=O)([N-]S(=O)(=O)C(F)(F)F)C(F)(F)F  11.2 ± 1
10. C1CCCCCC1 [cycloheptane] + CC[N+](C)(CC)CCOC.O=S(=O)([N-]S(=O)(=O)C(F)(F)F)C(F)(F)F  11 ± 1
11. C1CCCCC1 [cyclohexane] + CC[N+](C)(CC)CCOC.O=S(=O)([N-]S(=O)(=O)C(F)(F)F)C(F)(F)F  8.3 ± 0.72
12. C=CCCCC [hex-1-ene] + CC[N+](C)(CC)CCOC.O=S(=O)([N-]S(=O)(=O)C(F)(F)F)C(F)(F)F  7.64 ± 0.66
13. CCCOCCC [dipropyl ether] + CC[N+](C)(CC)CCOC.O=S(=O)([N-]S(=O)(=O)C(F)(F)F)C(F)(F)F  6.07 ± 0.52
14. CC(C)OC(C)C [diisopropyl ether] + CC[N+](C)(CC)CCOC.O=S(=O)([N-]S(=O)(=O)C(F)(F)F)C(F)(F)F  5.88 ± 0.51
15. C1CCCC1 [cyclopentane] + CC[N+](C)(CC)CCOC.O=S(=O)([N-]S(=O)(=O)C(F)(F)F)C(F)(F)F  5.79 ± 0.5
16. C1=CCCCC1 [cyclohexene] + CC[N+](C)(CC)CCOC.O=S(=O)([N-]S(=O)(=O)C(F)(F)F)C(F)(F)F  4.93 ± 0.43
17. CCC(C)(C)OC [2-methoxy-2-methylbutane] + CC[N+](C)(CC)CCOC.O=S(=O)([N-]S(=O)(=O)C(F)(F)F)C(F)(F)F  3.76 ± 0.32
18. COC(C)(C)C [2-methoxy-2-methylpropane] + CC[N+](C)(CC)CCOC.O=S(=O)([N-]S(=O)(=O)C(F)(F)F)C(F)(F)F  2.67 ± 0.23
19. CCOCC [diethyl ether] + CC[N+](C)(CC)CCOC.O=S(=O)([N-]S(=O)(=O)C(F)(F)F)C(F)(F)F  2.57 ± 0.22
20. CCc1ccccc1 [ethylbenzene] + CC[N+](C)(CC)CCOC.O=S(=O)([N-]S(=O)(=O)C(F)(F)F)C(F)(F)F  2.29 ± 0.2
21. CCCCO [butan-1-ol] + CC[N+](C)(CC)CCOC.O=S(=O)([N-]S(=O)(=O)C(F)(F)F)C(F)(F)F  2 ± 0.17
22. CCCO [propan-1-ol] + CC[N+](C)(CC)CCOC.O=S(=O)([N-]S(=O)(=O)C(F)(F)F)C(F)(F)F  1.59 ± 0.13
23. CC(C)O [propan-2-ol] + CC[N+](C)(CC)CCOC.O=S(=O)([N-]S(=O)(=O)C(F)(F)F)C(F)(F)F  1.44 ± 0.12
24. C=Cc1ccccc1 [styrene] + CC[N+](C)(CC)CCOC.O=S(=O)([N-]S(=O)(=O)C(F)(F)F)C(F)(F)F  1.36 ± 0.11
25. CCO [ethanol] + CC[N+](C)(CC)CCOC.O=S(=O)([N-]S(=O)(=O)C(F)(F)F)C(F)(F)F  1.28 ± 0.11
26. CCCC(=O)CC [3-hexanone] + CC[N+](C)(CC)CCOC.O=S(=O)([N-]S(=O)(=O)C(F)(F)F)C(F)(F)F  1.25 ± 0.1
27. CCCCC(C)=O [2-hexanone] + CC[N+](C)(CC)CCOC.O=S(=O)([N-]S(=O)(=O)C(F)(F)F)C(F)(F)F  1.19 ± 0.1
28. c1ccccc1 [benzene] + CC[N+](C)(CC)CCOC.O=S(=O)([N-]S(=O)(=O)C(F)(F)F)C(F)(F)F  1.07 ± 0.09
29. CO [methanol] + CC[N+](C)(CC)CCOC.O=S(=O)([N-]S(=O)(=O)C(F)(F)F)C(F)(F)F  1.01 ± 0.08
30. c1ccsc1 [thiophene] + CC[N+](C)(CC)CCOC.O=S(=O)([N-]S(=O)(=O)C(F)(F)F)C(F)(F)F  0.94 ± 0.077
31. CCC(=O)CC [pentan-3-one] + CC[N+](C)(CC)CCOC.O=S(=O)([N-]S(=O)(=O)C(F)(F)F)C(F)(F)F  0.916 ± 0.076
32. CCCC(C)=O [pentan-2-one] + CC[N+](C)(CC)CCOC.O=S(=O)([N-]S(=O)(=O)C(F)(F)F)C(F)(F)F  0.896 ± 0.074
33. C1CCOC1 [tetrahydrofuran] + CC[N+](C)(CC)CCOC.O=S(=O)([N-]S(=O)(=O)C(F)(F)F)C(F)(F)F  0.867 ± 0.072
34. c1ccncc1 [pyridine] + CC[N+](C)(CC)CCOC.O=S(=O)([N-]S(=O)(=O)C(F)(F)F)C(F)(F)F  0.619 ± 0.054
35. CC(C)=O [acetone] + CC[N+](C)(CC)CCOC.O=S(=O)([N-]S(=O)(=O)C(F)(F)F)C(F)(F)F  0.518 ± 0.047
36. CC#N [acetonitrile] + CC[N+](C)(CC)CCOC.O=S(=O)([N-]S(=O)(=O)C(F)(F)F)C(F)(F)F  0.49 ± 0.045

— the NIST ThermoML archive (doi:10.1016/j.jct.2016.07.017)
